Measurements: PubChem BioAssay AID1850 (Southern Research Specialized Biocontainment Screening …, 2009)
Values joined by “and” are separate entries in the source; they are usually repeats but may differ in a detail not shown here. Equal entries are not always repeated.

Test system: Salmonella Typhi PhoP-promoter GFP reporter, fluorescence, 4 h
Assay: PhoP regulon inhibitors, Salmonella typhi PhoP promoter GFP reporter, confirmatory (AID 1850)

Structure (SMILES)	IC50
CC1CCC(C(C)C)C(OC(=O)C[n+]2cc(-c3ccc(Cl)cc3)n3c2CCC3)C1 (centres undefined)	38 µM
Cc1ccc(-n2c(C)cc(C3N=C(N)Nc4nc5ccccc5n43)c2C)c(C)c1 (centres undefined)	20.8 µM
Cc1ccc(C(C[N+](=O)[O-])Sc2ccc(N)cc2)cc1 (centres undefined)	55.1 µM
COc1cc(CNCCc2c[nH]c3ccccc23)ccc1OCc1ccccc1F	133 µM
CC(C(=O)c1ccc(-c2ccccc2)cc1)[n+]1cccc(NC(=O)c2ccccc2)c1 (centres undefined)	20.4 µM
Cn1c(-c2ccc3c(c2)OCO3)cnc1NCc1ccc(Cl)cc1	81.8 µM
Cc1ncc(CC(=O)n2cc(C(=O)c3cc(Cl)ccc3O)cn2)s1	83 µM
c1ccc(Nc2ccnc(Nc3ccccc3)n2)cc1	33.6 µM
Nc1cccc2c(=O)c3ccccc3[nH]c12	21.5 µM
NC1CCN(c2c(F)cc3c(=O)c(C(=O)O)cn(C4CC4)c3c2Cl)C1 (centres undefined)	< 0.23 µM
CC1CCC(C(C)C)C(OC(=O)Cn2c(-c3ccc(Br)cc3)[n+](C)c3ccccc32)C1 (centres undefined)	48.7 µM
O=C(O)c1sccc1Oc1ccc(F)cc1[N+](=O)[O-]	88.7 µM
Clc1ccc(C(c2ccc(Cl)cc2)n2cc[n+](CC(OCc3ccc(Cl)cc3Cl)c3ccc(Cl)cc3Cl)c2)cc1 (centres undefined)	10.5 µM
Cc1nc2c(=O)n(C)c(=O)nc-2n(C)n1	1.29 µM
Cc1cccc(C(=O)NNC(=S)NC(=O)c2cccs2)c1	65.7 µM
O=C(Nc1cccnc1)c1cc(Br)c(Br)s1	19.1 µM
CC(C)N1CSC(=S)N(Cc2ccccc2)C1	108 µM
COc1c(N2CCN[C@H](C)C2)c(F)cc2c(=O)c(C(=O)O)cn(C3CC3)c12	< 0.23 µM
O=C(Cn1cc[n+](CC(=O)c2ccc(Cl)cc2Cl)c1)c1ccc(Cl)cc1Cl	37.5 µM
C#CCOCCOCCOCCNc1nc(N2CCN(C(=O)CCCCCCCCCCNC(=O)Cn3cc(CCCCCN)nn3)CC2)nc(N2CCN(C(=O)CCCCCCCCCCNC(=O)[C@@H]([C@H](C)O)n3cc(C)nn3)CC2)n1	114 µM
O=C(N/N=C/c1c(O)ccc2ccccc12)c1ccc(CO)nc1	87.3 µM
O=C(N/N=C/c1ccc([N+](=O)[O-])s1)C(O)c1ccccc1 (centres undefined)	39.4 µM
O=C(C[n+]1cc(-c2ccc(Cl)cc2)n2c1CCC2)Nc1nc(-c2ccccc2)cs1	22 µM

Structure (SMILES)	IC50
COc1cc(CNCCc2c[nH]c3ccccc23)ccc1OCc1ccc(F)cc1	50.9 µM
CCCCCCCCCCOC(=O)Cn1c(COc2ccccc2OC)[n+](C)c2ccccc21	10.2 µM
CCCCCCCCNC(C)C(O)c1ccc(SC(C)C)cc1 (centres undefined)	25.2 µM
N/C(=N\OS(=O)(=O)c1ccc(Cl)cc1)c1cccnc1	26.6 µM
CN(C)CC/C=C1\c2ccc(F)cc2Sc2cc(F)c(Cl)cc21	32.4 µM
Cc1cc(C)n2nc(S(=O)(=O)Nc3c(Cl)cccc3Cl)nc2n1	63.5 µM
O=C(N/N=C/c1cc(Cl)ccc1O)c1cccnc1	37.6 µM
c1ccc(Nc2nc(NCC3CCCO3)c3ccccc3n2)cc1 (centres undefined)	5 µM
NC1=NC[C@H](Cc2ccccc2)N1CCCCC1CCCCC1	22 µM
C[n+]1c2n(c3ccccc31)N=C(c1ccc(-c3ccccc3)cc1)CS2	24.8 µM
COc1ccc(Nc2nc(NCC3CCCO3)c3ccccc3n2)c(OC)c1 (centres undefined)	37 µM
Cc1ccc2c(c1)c1c(n2CC(O)CNC2CCCCC2)CCCC1 (centres undefined)	46.9 µM
CCCCn1c(NS(=O)(=O)c2ccc(C)cc2)c(S(=O)(=O)c2ccccc2)c2nc3ccccc3nc21	7.98 µM
CCn1cc(C(=O)O)c(=O)c2cc(F)c(N3CCN(C(=S)Nc4ccccc4OC)CC3)cc21	11.1 µM
O=c1c(O)cccc2cc(O)c(O)c(O)c12	25.8 µM
Cc1cc(C2N=C(N)Nc3nc4ccccc4n32)c(C)n1-c1ccccc1Cl (centres undefined)	32 µM
CCCCOc1ccc(CSC(=N)N)cc1Cl	77.7 µM
CCOC(=O)N1CCN(Cc2cc(Cl)c3cccnc3c2O)CC1	61.7 µM
CCOc1ccc(/C=N/NC(=O)c2[nH]ncc2Br)c(O)c1	138 µM
CC(=O)NC(c1ccc(Cl)cc1Cl)c1ccc2cccnc2c1O (centres undefined)	95.5 µM
O=C(N/N=C/c1cc([N+](=O)[O-])ccc1O)C1CC1	29.5 µM
Nc1nonc1C(=O)N/N=C/c1cc(Br)ccc1O	10.5 µM
C#CCOCCOCCOCCNc1nc(N2CCN(C(=O)CCCCCCCCCCNC(=O)[C@H]([C@@H](C)CC)n3cc(CCCCN=C(N)N)nn3)CC2)nc(N2CCN(C(=O)CCCCCCCCCCNC(=O)[C@H](CCCCN)n3cc(C)nn3)CC2)n1	35.7 µM

Structure (SMILES)	IC50
CCCCCc1ccc(OCCC[n+]2ccccc2)c(CCCCC)c1	39.5 µM
CCCCn1c(NS(=O)(=O)c2ccccc2)c(C(=O)OCC)c2nc3ccccc3nc21	35 µM
CCN1/C(=C/c2cc[n+](C)cc2)C=Cc2cc(C)ccc21	36.9 µM
O=C(Cc1ccccc1)N/N=C/c1cc(Br)cc(Cl)c1O	32.7 µM
Cc1ccc(C(=O)NCCN2C3=NC[C@@H](Cc4ccccc4)N3C[C@H]2Cc2ccc(O)cc2)cc1Br	47.2 µM
Cc1[nH]cnc1C(=O)N/N=C/c1ccc([N+](=O)[O-])s1	20.4 µM
CNCCCC1Sc2ccccc2Oc2ccccc21 (centres undefined)	98.5 µM
Oc1c(Br)cc(Br)cc1C=NCc1ccc(F)cc1	57.4 µM
COc1ccc(Nc2c3c(nc4ccccc24)CCC3)cc1	74.6 µM
O/N=C/c1ccc(OCc2ccccc2)c(Cl)c1	80.6 µM
Cc1cc(C)c(OCCCCNCc2ccccc2)c(Cl)c1	74.6 µM
CCCc1nnc(NC(=O)c2cn(CC)c3cc(N4CCN(C)CC4)c(F)cc3c2=O)s1	66.8 µM
Cc1ccc(C(C[N+](=O)[O-])n2nc(C)cc2C)cc1 (centres undefined)	75.1 µM
CCCCCNc1nc(N2CCCC2)c2c(c1C#N)CCN(C)C2	53.6 µM
OC(CNCC1CCCO1)Cn1c2ccc(Cl)cc2c2cc(Cl)ccc21 (centres undefined)	35.2 µM
OCCN1CCN(Cc2cc(Cl)c3cccnc3c2O)CC1	75.7 µM
Cc1cccc(Nc2c3c(nc4ccccc24)CCC3)c1	34.7 µM
CNC(CC(=O)c1ccc([N+](=O)[O-])cc1)C(Cl)(Cl)Cl (centres undefined)	95 µM
Cc1c(CN(C)C)c2c(n1Cc1ccccc1)C(=O)c1ccc(Br)cc1-2	76.5 µM
CN1CCN(C(c2ccc(C(F)(F)F)cc2)c2ccc3cccnc3c2O)CC1 (centres undefined)	20 µM
O=C(CN1C2=NCCCN2c2ccccc21)c1ccc([N+](=O)[O-])cc1	104 µM
CCCCCC[N+](C)(C)CC/C=C1/c2ccccc2Sc2ccc(Cl)cc21	38.1 µM
CCCCCC(CC(=O)NO)C(=O)NC(C(=O)N1CCCC1CO)C(C)C (centres undefined)	15.5 µM

Structure (SMILES)	IC50
COc1c2ccccc2nc2ccccc12	25.6 µM
Cc1ccc(S(=O)(=O)NNc2ccccc2)c(C)c1	38.3 µM
COc1cc(Br)cc(/C=N/c2ncn[nH]2)c1O	98.4 µM
CCOc1cc(CNC(C)(C)CO)cc(Br)c1OCc1ccc(Cl)cc1Cl	43.6 µM
O=C(NC(CO)C(O)c1ccc([N+](=O)[O-])cc1)C(Cl)Cl (centres undefined)	5.12 µM
Cc1ccc(C(OCC(O)CNCc2ccc(F)cc2)c2ccccc2)cc1 (centres undefined)	48.4 µM
O=C(CCN1CCN(c2ccccc2)CC1)c1ccc(Cl)cc1	64.9 µM
CC(C)(c1ccccc1)c1ccc(OCCCN2CCNCC2)cc1	56.2 µM
Cc1ccc(OCC(O)Cn2c(=N)n(CCN3CCCCC3)c3ccccc32)cc1 (centres undefined)	112 µM
Clc1c(OCCCn2ccnc2)ccc2ccccc12	39.7 µM
CN1CCN(c2c(F)cc3c(=O)c(C(=O)O)cn4c3c2SCC4)CC1	2.46 µM and 3.26 µM
O=C1C(=O)c2ccccc2-c2ccccc21	20.7 µM
COc1ccc(Nc2cc(C)nc(NCc3ccccc3)n2)cc1	74.1 µM
O=C(OCC(=O)N1CCOCC1)c1ccc[nH]c1=O	36.6 µM
O=C(c1ccc([N+](=O)[O-])o1)N1CCOCC1	76.8 µM
COc1ccccc1Nc1c2ccccc2nc2ccccc12	36.3 µM
Cc1ccc(C(=O)N/C(=C\c2ccc(-c3ccc(Br)cc3)o2)C(=O)NCCCN(C)C)cc1	37.1 µM
Cc1ccc(C(=O)N/N=C\c2ccc([N+](=O)[O-])s2)cn1	18.6 µM
N=c1n(CCN2CCCCC2)c2ccccc2n1CC(O)c1ccc(Cl)c(Cl)c1 (centres undefined)	37.1 µM
CCCCCCC[N+](CC)(CC)CCCCc1ccc(Cl)cc1	54.7 µM
CCc1cccc(NC(=O)CSC2=NS(=O)(=O)c3ccccc32)c1	37.3 µM
Cc1ccccc1C(=O)N/N=C/c1ccc([N+](=O)[O-])s1	35.5 µM
CNC[C@@H](Cc1ccccc1)NC[C@@H](CC1CCCCC1)NCCCc1ccccc1	38.2 µM

Structure (SMILES)	IC50
CC1=C([N+](=O)[O-])C(c2cccc(Br)c2)C2=C(N1)c1ccccc1C2=O (centres undefined)	18.2 µM
c1ccc2cc3c(NCCN4CCOCC4)ccnc3cc2c1	77.1 µM
CCOc1ccc(-c2cc(C)[n+](CCN(CC)CC)c(-c3ccc(OCC)cc3)c2)cc1	37.5 µM
O=[N+]([O-])c1cc(CN2CCN(c3cccc(C(F)(F)F)c3)CC2)c2cccnc2c1O	20.8 µM
COc1cc(/C=N/NC(=O)c2cncc(Br)c2)cc([N+](=O)[O-])c1O	63.5 µM
COc1ccc(/C=C/c2cc(-c3ccc(C)cc3)o[n+]2C)cc1	37.2 µM
Clc1ccc2[nH]c3c(c2c1)CCc1cn[nH]c1-3	79.6 µM
CN(C)c1ccc(Nc2nc(N)c3ccccc3n2)cc1	30.9 µM
CN1CCN(C(c2ccc(Br)cc2)c2cc(Cl)c3cccnc3c2O)CC1 (centres undefined)	68.3 µM
CN1C(=O)NC(c2cccc(O)c2)C(C(=O)c2cccs2)C1(O)C(F)(F)F (centres undefined)	40.3 µM
Oc1c(Br)cc(Br)cc1C=NCc1ccccc1	86.6 µM
Oc1c(C(Nc2ccccn2)c2cccnc2)cc(Cl)c2cccnc12 (centres undefined)	36.5 µM
Clc1ccc(OCCCNCc2ccccc2)c2ccccc12	19.2 µM
Fc1ccccc1CCNCc1ccccc1	34.1 µM
Cc1cc(NC2CCCCC2)nc(NCc2ccccc2)n1	34.1 µM
C/C(=N/Nc1ccnc2cc(Cl)ccc12)c1ccc(N)cc1	30 µM
Cc1cc(C)n(/N=C/c2cc([N+](=O)[O-])ccc2O)c(=O)c1	92 µM
C#CCOCCOCCOCCNc1nc(N2CCN(C(=O)CCCCCCCCCCNC(=O)[C@H](CCCCN)n3cc(CCO)nn3)CC2)nc(N2CCN(C(=O)CCCCCCCCCCNC(=O)[C@H](CCCCN)n3cc(C[C@@H](C)CC)nn3)CC2)n1	31.9 µM
Cc1ccc(N/C(=C\C(=O)c2ccccc2)C(=O)O)cc1	30.9 µM
CCCCCCCCCCCCOC(=O)C[N+](C)(C)C	29.9 µM
COc1cccc(NC2=NC3(CCCCC3)N=C(N)N2)c1	75.6 µM
NC1=NC[C@H](c2ccccc2)N1CCCCC1CCCCC1	34.8 µM
